In publication PMC4423475, “Structure-based discovery of the first non-covalent inhibitors of Leishmania major tryparedoxin peroxidase by high throughput docking” (Scientific Reports, 2015):

Key:
[1] = molecular target: T1, horseradish peroxidase (HRP) (Armoracia rusticana, UniProt P00433); test: HRP inhibition control (compounds tested for their ability to inhibit HRP); format: biochemical; conditions: compound at 100 μM; for HRP inhibition: first series (HTD hits)
T1 sequence (P00433 31-353): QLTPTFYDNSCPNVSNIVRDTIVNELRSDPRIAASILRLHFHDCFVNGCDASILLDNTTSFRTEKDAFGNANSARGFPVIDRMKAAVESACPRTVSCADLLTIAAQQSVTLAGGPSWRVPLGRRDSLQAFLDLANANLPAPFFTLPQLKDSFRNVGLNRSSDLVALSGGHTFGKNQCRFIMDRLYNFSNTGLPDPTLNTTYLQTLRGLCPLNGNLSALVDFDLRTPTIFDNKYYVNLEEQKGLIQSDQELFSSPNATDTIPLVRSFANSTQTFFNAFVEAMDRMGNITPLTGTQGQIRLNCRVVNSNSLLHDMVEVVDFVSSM
Description: (§1) The compounds ability to inhibit TXNPx has been evaluated by simply measuring the following ratio: ΔA/ΔA0 where ΔA0 is the difference in absorbance between HRP and compound I (ΔA0 = 0.04) and ΔA is the difference in absorbance between HRP and compound I in the presence of LmTXNPx and 100 μM inhibitors. All the compounds have been previously tested for their ability to inhibit HRP at a concentration of 100 μM.

[2] = molecular target: T2, LmTXNPx (Leishmania major, UniProt Q4QF76); test: Surface plasmon resonance, immobilized LmTXNPx; format: binding; conditions: SPR, 1:1 steady-state affinity model
T2 sequence (Q4QF76 entry or part of it): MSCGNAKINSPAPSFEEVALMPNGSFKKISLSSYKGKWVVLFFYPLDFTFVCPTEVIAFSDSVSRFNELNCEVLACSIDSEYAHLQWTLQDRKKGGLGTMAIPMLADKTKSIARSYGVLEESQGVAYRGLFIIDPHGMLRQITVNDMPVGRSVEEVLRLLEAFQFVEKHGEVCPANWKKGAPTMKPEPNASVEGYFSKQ
Description: SPR experiments were carried out using a SensiQ Pioneer system (SensiQ, ICxNomadics Inc.). The interaction of the immobilized protein with the analytes was detected by mass concentration-dependent changes of the refractive index on the sensor chip surface. The changes in the observed SPR signal are expressed as Resonance Units (RU). Typically, a response change of 1000 RU corresponds to a change in the surface concentration on the sensor chip of about 1 ng of protein per mm^2.
The sensor chips (COOH5 SensiQ) were chemically activated by injection of 250 μl of a 1:1 mixture of N-hydroxysuccinimide (50 mM) and N-ethyl-N-(3-dimethylaminopropyl)carbodiimide (200 mM) at a flow rate of 25 μl/min. Recombinant LmTXNPx was immobilized on the activated sensor chip via amine coupling. The reaction was carried out at a rate of […] in 20 mM sodium acetate at pH 4.5; the remaining ester groups were blocked by injecting 100 μL of 1 M ethanolamine hydrochloride. Recombinant LmTXNPx was captured to approximately 2000 RU. The analytes were dissolved at a concentration of 10 mM or 20 mM in dimethylsulfoxide (DMSO), and diluted 1:100 in HEPES-buffered saline (HBS: 10 mM HEPES, pH 7.4; 150 mM NaCl; 0.005% surfactant P20).
FastStep injections of samples (100 or 200 μM analytes in HBS + 1% DMSO), and reference buffer (HBS + 1% DMSO) were performed: either the inhibitor and reference buffer were automatically diluted in HBS and injected by 7 serial doubling steps (step contact time = 15 s, nominal flow rate = 200 μl/min). The following analytes were injected: 0–17 s: analyte concentration = 3.12 μM; 17–33 s: 6.25 μM; 33–48 s: 12.5 μM; 48–62 s: 25 μM; 63–78 s: 50 μM; 78–93 s: 100 μM; 94–100 s: 200 μM; for each injection, a maximal RU value was obtained. In control experiments, the sensor chip was treated as described above in the absence of immobilized protein.
Each sensorgram is the average of three different experiments. Sensorgrams were subjected to global analysis using QDat software 2.2.0.23, and for each analyte concentration a % Response was calculated, allowing a local Rmax fit (according to the molecular weight of each compound) and displaying as a response relative to the Rmax. % Response vs. analyte concentration was plotted and a KD value was calculated for each analyte by fitting a simple 1:1 steady-state affinity model to the data.

[3] = molecular target: T2, LmTXNPx; test: HRP-H2O2 competition assay (LmTXNPx inhibition assay); format: biochemical
Text: To determine the ability of the selected compounds to inhibit the catalytic activity of LmTXNPx, we used the horseradish peroxidase (HRP)-H2O2 competition assay developed by Augusto and co-workers[16]. HRP is well known to react with H2O2 in a two-electron oxidation process that leads to the formation of HRP compound I (HRP-I), a stable HRP oxidized intermediate that can be followed at 398 nm. Reduced LmTXNPx competes with HRP for the H2O2 substrate, leading to a decrease in HRP-I yield that is proportional to LmTXNPx concentration. The addition of LmTXNPx inhibitors leads to a decrease in free LmTXNPx concentration and consequent increase in the HRP-I yield.
Competition kinetics have been performed for determining the activity of the compounds selected by HTD. The ability of the compounds to inhibit the H2O2 reduction by LmTXNPx has been determined by competition approach utilizing the well-known reactivity of H2O2 with horseradish peroxidase (HRP)[16][20][26]. HRP is a heme-containing peroxidase, which uses hydrogen peroxide (by reducing it to water) to oxidize different organic substrates to free radicals. The reaction takes place in three steps: • PFe(III) + H2O2 → P^·+Fe(IV) = O + H2O • P^·+Fe(IV) = O + X → X^• + PFe(IV) = O • PFe(IV) = O + X + 2H^+ → PFe(III) + X^· + H2O
Where PFe(III) is HRP (the native protein), P^·+Fe(IV) = O is the HRP compound I (HRP-I), PFe(IV) = O is the HRP compound II (HRP-II) and X is a generic substrate. The formation of HPR-I results in a change in light absorption in the visible range (Δε403 nm = 5.4 × 10^4 M^−1cm^−1). For kinetic studies the HRP oxidation is monitored at 398 nm (Δε398 nm = 4.2 × 10^4 M^−1cm^−1) instead of 403 nm (wavelength corresponding to the maximum of HRP absorbance) in order to avoid interferences arising from HRP-I reduction to HRP-II. This method is usually used to determine the second order rate constant of 2Cys- Peroxiredoxin reaction with hydrogen peroxide and peroxinitrite.
Thus, H2O2-mediated HRP oxidation is a two-electron oxidation process, leading to the formation of HRP-I, followed at 398 nm. The addition of increasing concentrations of pre-reduced LmTXNPx led to a lower yield in HRP-I since two reactions take place in solution: [drawing 1] [drawing 2]
Where I indicates the inhibitor and LmTXNPx-I indicates the complex between LmTXNPx and the inhibitor. The addition of active LmTXNPx inhibitors led to a decrease in the free LmTXNPx and the consequent recover in the HRP-I yield and therefore to a partial or total recover of the ΔA.
The HRP-based indirect kinetic assays to test the inhibitors was performed in the following way: HRP 2 μM was exposed to H2O2 0.25 μM in sodium phosphate buffer pH 7.4 and 25°C, either in the absence or in the presence of the indicated concentrations of reduced LmTXNPx and in the absence or in the presence of inhibitors. The relative changes in absorbance at 398 nm (ΔA/ΔA0), reflecting HRP-I formation, were determined.
as §1

[4] = residual activity of HRP, HRP 2 μM, H2O2 0.25 μM, 2.5 μM LmTXNPx, 100 μM inhibitors, sodium phosphate buffer pH 7.4, 25°C
[5] = first series (HTD hits), HRP 2 µM, H2O2 0.25 µM, 2.5 µM LmTXNPx, 100 µM inhibitors, pH 7.4, 25 °C

HRP inhib. [1]	Kd [2] [µM]	(ΔA/ΔA0) × 100 [3, 4] [%]	HRP inhibition [1]	(ΔA/ΔA0) × 100 [3, 5] [%]	SMILES
No	354 ± 12	44 ± 6			COc1cc2cc(CN(Cc3ccc(F)cc3)Cc3nnnn3Cc3cccc(N)c3)c(=O)[nH]c2cc1OC [Compound 3, 3-((((1-(3-Aminobenzyl)-1H-tetrazol-5-yl)methyl)(4-fluorobenzyl)amino)methyl)-6,7-dimethoxyquinolin-2(1H)-one]
No	52 ± 1	75 ± 9			COc1cc2cc(CN(Cc3ccc(F)cc3)Cc3nnnn3Cc3cccc(-c4ccccc4)c3)c(=O)[nH]c2cc1OC [Compound 6, 3-((((1-([1,1′-Biphenyl]-3-ylmethyl)-1H-tetrazol-5-yl)methyl)(4-fluorobenzyl)amino)methyl)-6,7-dimethoxyquinolin-2(1H)-one]
Yes	74 ± 3				COc1cc2cc(CN(Cc3ccccc3)Cc3nnnn3Cc3ccccc3)c(=O)[nH]c2cc1OC [Compound 9, 3-((((1-Benzyl-1H-tetrazol-5-yl)methyl)benzylamino)methyl)-6,7-dimethoxyquinolin-2(1H)-one]
No	281 ± 11	71 ± 6			COc1cc2cc(CN(Cc3ccc(F)cc3)Cc3nnnn3Cc3cccc(I)c3)c(=O)[nH]c2cc1OC [Compound 5, 3-(((4-Fluorobenzyl)((1-(3-iodobenzyl)-1H-tetrazol-5-yl)methyl)amino)methyl)-6,7-dimethoxyquinolin-2(1H)-one]
No	172 ± 6	37 ± 9			COc1cc2cc(CN(Cc3ccc(F)cc3)Cc3nnnn3Cc3cccc([N+](=O)[O-])c3)c(=O)[nH]c2cc1OC [Compound 2, 3-(((4-Fluorobenzyl)((1-(3-nitrobenzyl)-1H-tetrazol-5-yl)methyl)amino)methyl)-6,7-dimethoxyquinolin-2(1H)-one]
			Yes		CCOC(=O)Cc1csc(NC(=O)CSc2nc(C(C)C)nc3sc(C)c(C)c23)n1 [NF2013]
No	47 ± 1	60 ± 7			COc1ccc2[nH]c(=O)c(CN(Cc3ccc(F)cc3)Cc3nnnn3Cc3ccccc3)cc2c1 [Compound 7, 3-((((1-Benzyl-1H-tetrazol-5-yl)methyl)(4-fluorobenzyl)amino)methyl)-6-methoxyquinolin-2(1H)-one]
			No	16 ± 6	O=C(Nc1cc(C(=O)Nc2ccc(S(=O)(=O)[O-])c3cc(S(=O)(=O)[O-])cc(S(=O)(=O)[O-])c23)cc(C(=O)Nc2ccc(S(=O)(=O)[O-])c3cc(S(=O)(=O)[O-])cc(S(=O)(=O)[O-])c23)c1)Nc1cc(C(=O)Nc2ccc(S(=O)(=O)[O-])c3cc(S(=O)(=O)[O-])cc(S(=O)(=O)[O-])c23)cc(C(=O)Nc2ccc(S(=O)(=O)[O-])c3cc(S(=O)(=O)[O-])cc(S(=O)(=O)[O-])c23)c1.[Na+].[Na+].[Na+].[Na+].[Na+].[Na+].[Na+].[Na+].[Na+].[Na+].[Na+].[Na+] [NF864]

More lines, now with the values behind:

SMILES	HRP inhib. [1]	Kd [2] [µM]	(ΔA/ΔA0) × 100 [3, 4] [%]	HRP inhibition [1]	(ΔA/ΔA0) × 100 [3, 5] [%]
COc1cc2cc(CN(Cc3ccc(Br)cc3)Cc3nnnn3Cc3ccccc3)c(=O)[nH]c2cc1OC [Compound 11, 3-((((1-Benzyl-1H-tetrazol-5-yl)methyl)(4-bromobenzyl)amino)methyl)-6,7-dimethoxyquinolin-2(1H)-one]	No	112 ± 4	37 ± 20		
COc1cc2cc(CN(Cc3ccc(Cl)cc3)Cc3nnnn3Cc3ccccc3)c(=O)[nH]c2cc1OC [Compound 10, 3-((((1-Benzyl-1H-tetrazol-5-yl)methyl)(4-chlorobenzyl)amino)methyl)-6,7-dimethoxyquinolin-2(1H)-one]	Yes	63 ± 3			
COc1cc2cc(CN(Cc3nnnn3Cc3ccccc3)CC34CC5CC(CC(C5)C3)C4)c(=O)[nH]c2cc1OC [Compound 12, 3-((((1-Benzyl-1H-tetrazol-5-yl)methyl)(1-adamantylmethyl)amino)methyl)-6,7-dimethoxyquinolin-2(1H)-one]	No	39 ± 1	93 ± 6		
COc1cc2cc(CN(Cc3ccc(F)cc3)Cc3nnnn3Cc3cccc(N(C)C)c3)c(=O)[nH]c2cc1OC [Compound 4, 3-((((1-(3-(Dimethylamino)benzyl)-1H-tetrazol-5-yl)methyl)(4-fluorobenzyl)amino)methyl)-6,7-dimethoxyquinolin-2(1H)-one]		156 ± 5			
O=c1[nH]c2ccccc2cc1CN(Cc1ccc(F)cc1)Cc1nnnn1Cc1ccccc1 [Compound 8, 3-((((1-Benzyl-1H-tetrazol-5-yl)methyl)(4-fluorobenzyl)amino)methyl)quinolin-2(1H)-one]	No	104 ± 4	45 ± 15		
COc1cc2cc(CN(Cc3ccc(F)cc3)Cc3nnnn3Cc3ccccc3)c(=O)[nH]c2cc1OC [Compound 1, 3-((((1-Benzyl-1H-tetrazol-5-yl)methyl)(4-fluorobenzyl)amino)methyl)-6,7-dimethoxyquinolin-2(1H)-one]	No	290 ± 13	52 ± 10	No	47 ± 6
